Measured values taken from PubChem BioAssay AID1963450 (Molecular Pharmacology Branch, DTP, NCI, 2024).
“And” between values parts separate entries of the source, which are not always exact repeats. Equal values may be shown once.

Test system: 556581-035-R-J1-PDC complex spheroid growth
Assay: Anticancer human tumor 556581-035-R-J1-PDC patient-derived ovarian carcinoma cell line growth inhibition [Asc]
Conditions: for viability, T/C: stronger effect = lower value
Method in brief: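 Tumor cells were grown as multicellular spheroids with stromal HUVEC and mesenchymal stem cells and treated singly or in combination. Concentrations fell in half-log steps from the clinical Cmax, or from 10 microM where none was known.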
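Note: spheroids exposed to agents for 7 days before viability read.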

Molecule `NC1CCC(NC2CC2c2ccccc2)CC1` (centres undefined) + CNC(C)C(=O)NC1CN(S(=O)(=O)c2cccc(S(=O)(=O)N3CCC4CCC(C(=O)NC(c5ccccc5)c5ccccc5)N4C(=O)C(NC(=O)C(C)NC)C3)c2)CCC2CCC(C(=O)NC(c3ccccc3)c3ccccc3)N2C1=O has an IC50 (curve of first compound, second compound 0.01 µM) of over 100 nM, an IC50 (curve of first compound, second compound 0.0316 µM) of over 100 nM and an IC50 (curve of first compound, second compound 0.1 µM) of over 100 nM. The IC50 (curve of first compound, second compound 0.316 µM) was over 100 nM, the IC50 (curve of first compound, second compound 1 µM) was over 100 nM and the viability, T/C (second compound 0.01 µM, first compound 0.000316 µM) was 90.1%. For the same molecule, the viability, T/C (second compound 0.01 µM, first compound 0.001 µM) was 93.5%, the viability, T/C (second compound 0.01 µM, first compound 0.00316 µM) was 86.5% and the viability, T/C (second compound 0.01 µM, first compound 0.01 µM) was 92.9%. It also gave a viability, T/C (second compound 0.01 µM, first compound 0.0316 µM) of 95.8%, a viability, T/C (second compound 0.01 µM, first compound 0.1 µM) of 86.8% and a viability, T/C (second compound 0.0316 µM, first compound 0.000316 µM) of 86.3%. The viability, T/C (second compound 0.0316 µM, first compound 0.001 µM) was 83.8%, the viability, T/C (second compound 0.0316 µM, first compound 0.00316 µM) was 87.4% and the viability, T/C (second compound 0.0316 µM, first compound 0.01 µM) was 72%. For the same molecule, the viability, T/C (second compound 0.0316 µM, first compound 0.0316 µM) was 80.2%, the viability, T/C (second compound 0.0316 µM, first compound 0.1 µM) was 86.1% and the viability, T/C (second compound 0.1 µM, first compound 0.000316 µM) was 86.1%. The viability, T/C (second compound 0.1 µM, first compound 0.001 µM) was 87.5%, the viability, T/C (second compound 0.1 µM, first compound 0.00316 µM) was 75.1% and the viability, T/C (second compound 0.1 µM, first compound 0.01 µM) was 64.5%. The viability, T/C (second compound 0.1 µM, first compound 0.0316 µM) was 80.5%, the viability, T/C (second compound 0.1 µM, first compound 0.1 µM) was 86% and the viability, T/C (second compound 0.316 µM, first compound 0.000316 µM) was 75.2%. The viability, T/C (second compound 0.316 µM, first compound 0.001 µM) was 73.1%, the viability, T/C (second compound 0.316 µM, first compound 0.00316 µM) was 73% and the viability, T/C (second compound 0.316 µM, first compound 0.01 µM) was 71.9%. It also gave a viability, T/C (second compound 0.316 µM, first compound 0.0316 µM) of 77.3%, a viability, T/C (second compound 0.316 µM, first compound 0.1 µM) of 64.2% and a viability, T/C (second compound 1 µM, first compound 0.000316 µM) of 66.8%. The viability, T/C (second compound 1 µM, first compound 0.001 µM) was 73%, the viability, T/C (second compound 1 µM, first compound 0.00316 µM) was 73.1% and the viability, T/C (second compound 1 µM, first compound 0.01 µM) was 63.4%. The viability, T/C (second compound 1 µM, first compound 0.0316 µM) was 67.6% and the viability, T/C (second compound 1 µM, first compound 0.1 µM) was 71.4%.

In the case of `C=C(F)C(=O)N1CCN(c2nc(OCC3CCCN3C)nc3c2CCN(c2cccc4cccc(Cl)c24)C3)CC1CC#N` (centres undefined), the viability, T/C (compound 0.0316 µM) is reported as 77.9% and 98.7% and 100%, the viability, T/C (compound 0.1 µM) is reported as 113% and 115% and 91.5% and the viability, T/C (compound 0.316 µM) is reported as 102% and 110% and 95%. The viability, T/C (compound 1 µM) was 90.5% and 87% and 93.3%, the viability, T/C (compound 3.16 µM) was 48.4% and 64.9% and 55.1% and the viability, T/C (compound 10 µM) was 15% and 3.22% and 1%. The IC50 (curve of compound) was 3020 nM and 4070 nM and 3520 nM.

In the case of `NC(=O)C(=Cn1cnc(-c2cc(C(F)(F)F)cc(C(F)(F)F)c2)n1)c1cncnc1`, the viability, T/C (compound 0.000949 µM) is reported as 96.8% and 78.4% and 91%, the viability, T/C (compound 0.003 µM) is reported as 79.9% and 83.7% and 94.9% and the viability, T/C (compound 0.00949 µM) is reported as 97.6% and 97.4% and 87%. The viability, T/C (compound 0.03 µM) was 88.8% and 107% and 101%, the viability, T/C (compound 0.0949 µM) was 97.1% and 55.4% and 87.1% and the viability, T/C (compound 0.3 µM) was 95.9% and 77.4% and 102%. The IC50 (curve of compound) was over 300 nM.
